Data published in patent EP0083750A1, “Antimycotic azolyl butanols” (BAYER AG, priority 1981, dated 1983).
≈ marks a conversion by molar mass, not a printed value.

How the values were obtained:
Trichophyton mentagr. = assay: Antimycotic in-vitro activity, serial dilution test (MIC); format: cell-based; conditions: 96 h, Reihenverdünnungstest, 5 x 10^4 Keimen/ml Substrat, Sabourand's milieu d'epreuve, 20°C, 96 Stunden, read-out: MHK-Werte in γ/ml Nährmedium, Trichophyton mentagr.
Experimental: (§1) Versuchsbeschreibung: • Die in-vitro-Prüfungen wurden im Reihenverdünnungstest mit Keiminokula von durchschnittlich 5 x 10^4 Keimen/ml Substrat durchgeführt. Als Nährmedium dienten • a) für Dermatophyten und Schimmelpilze: Sabourand's milieu d'epreuve • b) für Hefen: • Fleischextrakt-Traubenzucker-Bouillon.
(§2) Die Bebrütungstemperatur betrug 20°C, die Bebrütungsdauer lag bei 24 bis 96 Stunden bei Hefen und 96 Stunden bei Dermatophyten und Schimmelpilzen.

Candida albicans = assay: as above; format: cell-based; conditions: Reihenverdünnungstest, 5 x 10^4 Keimen/ml Substrat, Fleischextrakt-Traubenzucker-Bouillon, 20°C, 24 bis 96 Stunden, read-out: MHK-Werte in γ/ml Nährmedium, Candida albicans
Experimental: as §1, §2

Candida-Zellen = assay: Antimycotic in-vivo activity (oral) in mouse candidosis; design: species or system Mäuse vom Typ SPF-CF1; key to Wirkung (Überlebende am 6.Tag p.i.): +++++: = sehr gute Wirkung = 90 % Überlebende am 6.Tag p.i.; ++++: = gute Wirkung = 80 % Überlebende am 6.Tag p.i.; +++: = Wirkung = 60 % Überlebende am 6.Tag p.i.; ++: = schwache Wirkung = 40 % Überlebende am 6.Tag p.i.; +: = Spur Wirkung = unter 40 % Überlebende am 6. Tag; k.W.: = keine Wirkung; conditions: Mäuse SPF-CF1, intravenös infiziert mit 1 - 2 x 10^6 Candida-Zellen; jeweils 50 - 100 mg/kg oral, 1 Stunde vor und 7 Stunden nach Infektion
Experimental: Antimykotische in-vivo-Wirksamkeit (oral) bei Mäusecandidose
Mäuse vom Typ SPF-CF1 wurden intravenös mit 1 - 2 x 10^6 logarithmisch wachsenden Candida-Zellen, die in physiologischer Kochsalzlösung suspendiert werden, infiziert. Eine Stunde vor und sieben Stunden nach der Infektion werden die Tiere mit jeweils 50 - 100 mg/kg Körpergewicht der Präparate oral behandelt.
Unbehandelte Tiere starben 3 bis 6 Tage post infektionem. Die Überlebensrate am 6. Tag post infektionem betrug bei unbehandelten Kontrolltieren etwa 5 %.

Aspergillus fumig. = assay: Antimycotic in-vitro activity, serial dilution test (MIC); format: cell-based; conditions: 96 h, Reihenverdünnungstest, 5 x 10^4 Keimen/ml Substrat, Sabourand's milieu d'epreuve, 20°C, 96 Stunden, read-out: MHK-Werte in γ/ml Nährmedium, Aspergillus fumig.
Experimental: as §1, §2

Microsporum canis = assay: as above; format: cell-based; conditions: 96 h, Reihenverdünnungstest, 5 x 10^4 Keimen/ml Substrat, Sabourand's milieu d'epreuve, 20°C, 96 Stunden, read-out: MHK-Werte in γ/ml Nährmedium, Microsporum canis
Experimental: as §1, §2

Torulopsis glabrata = assay: as above; format: cell-based; conditions: Nakaseomyces glabratus; Reihenverdünnungstest, 5 x 10^4 Keimen/ml Substrat, Fleischextrakt-Traubenzucker-Bouillon, 20°C, 24 bis 96 Stunden; read-out: MHK-Werte in γ/ml Nährmedium, Torulopsis glabrata
Experimental: as §1, §2

[1] = tested on: Dermatophyten, Schimmelpilze, Hefen; assay: Antimycotic in-vitro activity, serial dilution test, overall comparison with prior art; format: cell-based; conditions: in-vitro Reihenverdünnungstest
Experimental: as §1, §2

Question: With `CC(C(O)c1ccc(Cl)cc1)n1cncn1` (centres unmarked) [(A), reference compound] as the compound, how does the MIC (Trichophyton mentagr.) read?
Answer: > 64 µg/mL

Question: And the MIC (Candida albicans)?
Answer: > 64 µg/mL

Question: What about the “Wirkung (Überlebende am 6.Tag p.i.)” value (Candida-Zellen) of the same compound?
Answer: k.W.

Question: Which results are given for `OC(Cn1cncn1)c1ccc(-c2ccc(Cl)cc2)cc1` (centres unmarked) [(B), reference compound]?
Answer: MIC (Aspergillus fumig.): > 64 µg/mL; MIC (Trichophyton mentagr.): 4 µg/mL (≈ 13.3 µM); MIC (Microsporum canis): > 64 µg/mL; MIC (Candida albicans): > 64 µg/mL; Wirkung (Überlebende am 6.Tag p.i.) (Candida-Zellen): k.W.

Question: Which results are given for `CC(C)(Oc1ccc(Cl)cc1)C(O)C(CC1CCCCC1)n1cncn1` (centres unmarked) [Beispiel 31]?
Answer: MIC (Aspergillus fumig.): 8 µg/mL (≈ 21.2 µM); MIC (Trichophyton mentagr.): 2 µg/mL (≈ 5.29 µM); MIC (Torulopsis glabrata): 4 µg/mL (≈ 10.6 µM); MIC (Microsporum canis): 32 µg/mL (≈ 84.7 µM); MIC (Candida albicans): < 1 µg/mL; antimykotische Wirkung im Vergleich zu den bekannten Verbindungen (A) und (B) [1]: bessere antimykotische Wirkung

Question: Which results are given for `CC(C)(COc1ccc(Br)cc1)C(O)C(CC1CCCCC1)n1cncn1` (centres unmarked) [Beispiel 35]?
Answer: MIC (Aspergillus fumig.): < 1 µg/mL; MIC (Trichophyton mentagr.): < 1 µg/mL; MIC (Torulopsis glabrata): < 1 µg/mL; MIC (Microsporum canis): 8 µg/mL (≈ 18.3 µM); MIC (Candida albicans): 32 µg/mL (≈ 73.3 µM); antimykotische Wirkung im Vergleich zu den bekannten Verbindungen (A) und (B) [1]: bessere antimykotische Wirkung

Question: Which results are given for `CC(C)(CSc1ccccc1)C(O)C(Cc1ccc(Cl)cc1)n1cncn1` (centres unmarked) [Beispiel 37]?
Answer: MIC (Aspergillus fumig.): 64 µg/mL (≈ 159 µM); MIC (Trichophyton mentagr.): < 1 µg/mL; MIC (Torulopsis glabrata): 2 µg/mL (≈ 4.98 µM); MIC (Microsporum canis): 4 µg/mL (≈ 9.95 µM); MIC (Candida albicans): 4 µg/mL (≈ 9.95 µM); antimykotische Wirkung im Vergleich zu den bekannten Verbindungen (A) und (B) [1]: bessere antimykotische Wirkung

Question: For `CC(C)(CSc1ccc(Cl)cc1)C(O)C(Cc1ccc(Cl)cc1)n1cncn1` (centres unmarked) [Beispiel 38], which MIC (Aspergillus fumig.) is on record?
Answer: 64 µg/mL (≈ 147 µM)

Question: What about the MIC (Trichophyton mentagr.) of the same compound?
Answer: < 1 µg/mL

Question: And the MIC (Torulopsis glabrata)?
Answer: < 1 µg/mL

Question: And the MIC (Microsporum canis)?
Answer: < 1 µg/mL

Question: And the MIC (Candida albicans)?
Answer: < 1 µg/mL

Question: What about the “antimykotische Wirkung im Vergleich zu den bekannten Verbindungen (A) und (B)” value [1] of the same compound?
Answer: bessere antimykotische Wirkung

Question: Which MIC (Aspergillus fumig.) does the source give for `CC(C)(CSc1ccc(Cl)cc1)C(O)C(Cc1ccc(Cl)cc1Cl)n1cncn1` (centres unmarked) [Beispiel 39] here?
Answer: 64 µg/mL (≈ 136 µM)

Question: What about the MIC (Trichophyton mentagr.) of the same compound?
Answer: < 1 µg/mL

Question: What about the MIC (Torulopsis glabrata) of the same compound?
Answer: < 1 µg/mL

Question: What about the MIC (Microsporum canis) of the same compound?
Answer: 16 µg/mL (≈ 34 µM)

Question: And the MIC (Candida albicans)?
Answer: < 1 µg/mL

Question: And the “antimykotische Wirkung im Vergleich zu den bekannten Verbindungen (A) und (B)” value [1]?
Answer: bessere antimykotische Wirkung

Question: Which MIC (Aspergillus fumig.) does the source give for `CCCCC(C(O)C(C)(C)CSc1ccc(Cl)cc1)n1cncn1` (centres unmarked) [Beispiel 41] here?
Answer: > 64 µg/mL

Question: And the MIC (Trichophyton mentagr.)?
Answer: < 1 µg/mL

Question: And the MIC (Torulopsis glabrata)?
Answer: 2 µg/mL (≈ 5.44 µM)

Question: What about the MIC (Microsporum canis) of the same compound?
Answer: < 1 µg/mL

Question: What about the MIC (Candida albicans) of the same compound?
Answer: < 1 µg/mL

Question: And the “antimykotische Wirkung im Vergleich zu den bekannten Verbindungen (A) und (B)” value [1]?
Answer: bessere antimykotische Wirkung

Question: What does the source list for `CCOCC(C)(C)C(O)C(Cc1ccc(Cl)cc1)n1cncn1` (centres unmarked) [Beispiel 42]?
Answer: MIC (Aspergillus fumig.): 8 µg/mL (≈ 23.7 µM); MIC (Trichophyton mentagr.): < 1 µg/mL; MIC (Torulopsis glabrata): 16 µg/mL (≈ 47.4 µM); MIC (Microsporum canis): 8 µg/mL (≈ 23.7 µM); MIC (Candida albicans): 2 µg/mL (≈ 5.92 µM); antimykotische Wirkung im Vergleich zu den bekannten Verbindungen (A) und (B) [1]: bessere antimykotische Wirkung

Question: Which MIC (Aspergillus fumig.) does the source give for `CC(C)(COc1ccc(Br)cc1)C(O)C(CCOc1ccc(Cl)cc1Cl)n1cncn1` (centres unmarked) [Beispiel 45] here?
Answer: 32 µg/mL (≈ 60.5 µM)

Question: What about the MIC (Trichophyton mentagr.) of the same compound?
Answer: < 1 µg/mL

Question: What about the MIC (Torulopsis glabrata) of the same compound?
Answer: 4 µg/mL (≈ 7.56 µM)

Question: What about the MIC (Microsporum canis) of the same compound?
Answer: 8 µg/mL (≈ 15.1 µM)

Question: And the MIC (Candida albicans)?
Answer: < 1 µg/mL

Question: And the “antimykotische Wirkung im Vergleich zu den bekannten Verbindungen (A) und (B)” value [1]?
Answer: bessere antimykotische Wirkung

Question: `CCCCC(C(O)C(C)(C)Oc1ccc(Cl)cc1Cl)n1cncn1` (centres unmarked) [Beispiel 51] was tested. Which MIC (Aspergillus fumig.) did it give?
Answer: 8 µg/mL (≈ 21.5 µM)

Question: What about the MIC (Trichophyton mentagr.) of the same compound?
Answer: < 1 µg/mL

Question: What about the MIC (Torulopsis glabrata) of the same compound?
Answer: 8 µg/mL (≈ 21.5 µM)

Question: And the MIC (Microsporum canis)?
Answer: 2 µg/mL (≈ 5.37 µM)

Question: What about the MIC (Candida albicans) of the same compound?
Answer: 2 µg/mL (≈ 5.37 µM)

Question: What about the “antimykotische Wirkung im Vergleich zu den bekannten Verbindungen (A) und (B)” value [1] of the same compound?
Answer: bessere antimykotische Wirkung

Question: What does the source list for `CCCCC(C(O)C(C)(C)Oc1ccc(Cl)cc1)n1cncn1` (centres unmarked) [Beispiel 52]?
Answer: MIC (Aspergillus fumig.): 16 µg/mL (≈ 47.4 µM); MIC (Trichophyton mentagr.): 2 µg/mL (≈ 5.92 µM); MIC (Torulopsis glabrata): 4 µg/mL (≈ 11.8 µM); MIC (Microsporum canis): 2 µg/mL (≈ 5.92 µM); MIC (Candida albicans): < 1 µg/mL; antimykotische Wirkung im Vergleich zu den bekannten Verbindungen (A) und (B) [1]: bessere antimykotische Wirkung

Question: What does the source list for `C=CCC(C(O)C(C)(C)Oc1ccc(Cl)cc1Cl)n1cncn1` (centres unmarked) [Beispiel 53]?
Answer: MIC (Aspergillus fumig.): 8 µg/mL (≈ 22.5 µM); MIC (Trichophyton mentagr.): 2 µg/mL (≈ 5.61 µM); MIC (Torulopsis glabrata): 32 µg/mL (≈ 89.8 µM); MIC (Microsporum canis): 2 µg/mL (≈ 5.61 µM); MIC (Candida albicans): 4 µg/mL (≈ 11.2 µM); antimykotische Wirkung im Vergleich zu den bekannten Verbindungen (A) und (B) [1]: bessere antimykotische Wirkung
